Measured values taken from ChEMBL document CHEMBL1201862, “PubChem BioAssay data set” (2004).
Several values for one entry are separate records, joined by “and”; a condition that tells them apart may be missing. Identical values can stand only once.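 Dose response: 5 concentrations. Exposure: 48 h. Format: 96-well plates. Endpoint: linear interpolation; highest concentration if not reached. GI50 is the concentration that inhibits growth by half.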 Activity calls are given as the source filed them. Cut-off read from the data, not from the text of the source: active = GI50 up to about 1.1 µM and inactive = higher.

Tests used:
Test in all cases: growth of human tumour cells (NCI), 48 h
[1] = tested on: CCRF-CEM
[2] = tested on: OVCAR-4
[3] = tested on: EKVX
[4] = tested on: HOP-92
[5] = tested on: SK-OV-3
[6] = tested on: NCI-H460
[7] = tested on: U-251
[8] = tested on: NCI-H226
[9] = tested on: SF-295
[10] = tested on: Malme-3M
[11] = tested on: SNB-75
[12] = tested on: UACC-257
[13] = tested on: COLO 205
[14] = tested on: SNB-19
[15] = tested on: MCF7
[16] = tested on: OVCAR-8
[17] = tested on: HCC 2998
[18] = tested on: RXF 393
[19] = tested on: A498
[20] = tested on: SK-MEL-5
[21] = tested on: HL-60
[22] = tested on: UO-31
[23] = tested on: K562
[24] = tested on: UACC-62
[25] = tested on: SK-MEL-2
[26] = tested on: OVCAR-5
[27] = tested on: PC-3
[28] = tested on: HT-29
[29] = tested on: SN12C
[30] = tested on: HOP-62
[31] = tested on: MDA-N
[32] = tested on: SF-268
[33] = tested on: OVCAR-3
[34] = tested on: LOX IMVI
[35] = tested on: SR
[36] = tested on: A549
[37] = tested on: M14
[38] = tested on: CAKI-1
[39] = tested on: TK-10
[40] = tested on: NCI-H522
[41] = tested on: ACHN
[42] = tested on: SF-539
[43] = tested on: RPMI-8226
[44] = tested on: IGROV-1
[45] = tested on: NCI/ADR-RES
[46] = tested on: NCI-H23
[47] = tested on: DU-145
[48] = tested on: Hs-578T
[49] = tested on: KM12
[50] = tested on: SW-620
[51] = tested on: HCT-116
[52] = tested on: 786-0
[53] = tested on: T47D
[54] = tested on: SK-MEL-28
[55] = tested on: MDA-MB-435
[56] = tested on: HCT-15
[57] = tested on: MDA-MB-231
[58] = tested on: MOLT-4

In the case of `O=P(O)(O)OC1C(OP(=O)(O)O)C(OP(=O)(O)O)C(OP(=O)(O)O)C(OP(=O)(O)O)C1OP(=O)(O)O` (centres undefined), the GI50 [1] is reported as > 995 µM (inactive), the GI50 [2] is reported as > 875 µM (inactive) and the GI50 [3] is reported as > 560 µM (inactive). For the same compound, the GI50 [4] was > 923 µM (inactive).
For `CCOP(=O)(OCC)C1(O)CC(n2cc(C)c(=O)[nH]c2=O)OC1CO` (centres undefined), the GI50 [5] was > 100 µM (inactive), the GI50 [6] was > 100 µM (inactive) and the GI50 [7] was > 100 µM (inactive). The GI50 [2] was > 100 µM (inactive), the GI50 [8] was > 100 µM (inactive) and the GI50 [9] was > 100 µM (inactive). The GI50 [10] was > 100 µM (inactive), the GI50 [11] was > 100 µM (inactive) and the GI50 [12] was > 100 µM (inactive). The GI50 [13] was > 100 µM (inactive), the GI50 [14] was > 100 µM (inactive) and the GI50 [15] was > 100 µM (inactive). For the same compound, the GI50 [16] was > 100 µM (inactive), the GI50 [17] was > 100 µM (inactive) and the GI50 [18] was > 100 µM (inactive). The GI50 [19] was > 100 µM (inactive), the GI50 [20] was > 100 µM (inactive) and the GI50 [21] was > 100 µM (inactive). The GI50 [22] was > 100 µM (inactive), the GI50 [23] was > 100 µM (inactive) and the GI50 [24] was > 100 µM (inactive). For the same compound, the GI50 [25] was > 100 µM (inactive), the GI50 [26] was > 100 µM (inactive) and the GI50 [27] was > 100 µM (inactive). For the same compound, the GI50 [28] was > 100 µM (inactive), the GI50 [29] was > 100 µM (inactive) and the GI50 [30] was > 100 µM (inactive). The GI50 [31] was > 100 µM (inactive), the GI50 [32] was > 100 µM (inactive) and the GI50 [3] was > 100 µM (inactive). The GI50 [33] was > 100 µM (inactive), the GI50 [34] was > 100 µM (inactive) and the GI50 [35] was > 100 µM (inactive). For the same compound, the GI50 [36] was > 100 µM (inactive), the GI50 [37] was > 100 µM (inactive) and the GI50 [38] was > 100 µM (inactive). The GI50 [39] was > 100 µM (inactive), the GI50 [40] was > 100 µM (inactive) and the GI50 [41] was > 100 µM (inactive). For the same compound, the GI50 [42] was > 100 µM (inactive), the GI50 [43] was > 100 µM (inactive) and the GI50 [44] was > 100 µM (inactive). For the same compound, the GI50 [45] was > 100 µM (inactive), the GI50 [46] was > 100 µM (inactive) and the GI50 [47] was > 100 µM (inactive). For the same compound, the GI50 [48] was > 100 µM (inactive), the GI50 [49] was > 100 µM (inactive) and the GI50 [50] was > 100 µM (inactive). For the same compound, the GI50 [51] was > 100 µM (inactive), the GI50 [52] was > 100 µM (inactive) and the GI50 [53] was > 100 µM (inactive). The GI50 [54] was > 100 µM (inactive), the GI50 [4] was > 100 µM (inactive) and the GI50 [55] was > 100 µM (inactive). The GI50 [56] was > 100 µM.
In the case of `COC12C=CC(CC1)C(C)(C)C2O` (centres undefined), the GI50 [11] is reported as 87.5 µM (inactive) and 52.7 µM (inactive).
`CCOC(=O)/C=C(/C(=O)OCC)n1cc(C)c(=O)n(Cc2cn(CCCCOC(C)=O)nn2)c1=O` was tested, and the GI50 [1] was 0.363 µM (active), the GI50 [5] was > 100 µM (inactive) and the GI50 [6] was 10.7 µM (inactive). For the same compound, the GI50 [7] was 18.5 µM (inactive), the GI50 [2] was 19.7 µM (inactive) and the GI50 [8] was 18.4 µM (inactive). For the same compound, the GI50 [9] was 33.1 µM (inactive), the GI50 [11] was 16.3 µM (inactive) and the GI50 [12] was 19.8 µM (inactive). The GI50 [13] was 3.55 µM (inactive), the GI50 [14] was 18.8 µM (inactive) and the GI50 [15] was 6.3 µM (inactive). For the same compound, the GI50 [16] was 12.9 µM (inactive), the GI50 [57] was 27.6 µM (inactive) and the GI50 [17] was 18.3 µM (inactive). The GI50 [18] was 17.6 µM (inactive), the GI50 [20] was 25.6 µM (inactive) and the GI50 [22] was 15.1 µM (inactive). For the same compound, the GI50 [23] was 4.14 µM (inactive), the GI50 [24] was 14.7 µM (inactive) and the GI50 [58] was 5.05 µM (inactive). For the same compound, the GI50 [25] was 20.1 µM (inactive), the GI50 [26] was 18.1 µM (inactive) and the GI50 [27] was 19.7 µM (inactive). The GI50 [28] was 8.05 µM (inactive), the GI50 [29] was 23.6 µM (inactive) and the GI50 [30] was 33.6 µM (inactive). For the same compound, the GI50 [31] was 35 µM (inactive), the GI50 [32] was 17.1 µM (inactive) and the GI50 [3] was 10.7 µM (inactive). The GI50 [33] was 14.7 µM (inactive), the GI50 [34] was 17.7 µM (inactive) and the GI50 [35] was 4.27 µM (inactive). For the same compound, the GI50 [36] was 27 µM (inactive), the GI50 [38] was 2.84 µM (inactive) and the GI50 [39] was 4.67 µM (inactive). The GI50 [40] was 1.88 µM (inactive), the GI50 [41] was 5.09 µM (inactive) and the GI50 [42] was 4.54 µM (inactive). For the same compound, the GI50 [43] was 5.13 µM (inactive), the GI50 [44] was 15.2 µM (inactive) and the GI50 [45] was 23.6 µM (inactive). The GI50 [46] was 16.5 µM (inactive), the GI50 [47] was 34.4 µM (inactive) and the GI50 [48] was 23.2 µM (inactive). The GI50 [49] was 15.5 µM (inactive), the GI50 [50] was 3.03 µM (inactive) and the GI50 [51] was 22.7 µM (inactive). The GI50 [52] was 6.49 µM (inactive), the GI50 [53] was 9.46 µM (inactive) and the GI50 [54] was 13.4 µM (inactive). For the same compound, the GI50 [4] was 1.21 µM (inactive), the GI50 [55] was 10.7 µM (inactive) and the GI50 [56] was 4.76 µM.
